Assay results from patent US10722515B2, “Dual CLK/CDK1 inhibitors for cancer treatment” (SRI INTERNATIONAL, priority 2016, dated 2020).

Key:
[1] = molecular target: T1, ErbB2(h) (Homo sapiens, UniProt P04626); test: kinase profile, radiometric assay, ErbB2; assay type: biochemical
T1 construct: purchased Eurofins, Dundee, Scotland
Procedure: (§1) Enzymatic biochemical activities were evaluated in radiometric protein kinase assays (Eurofins, Dundee, Scotland). Kinases are incubated with buffer, substrate and [γ-^33P]-ATP (specific activity approx. 500 cpm/pmol, concentration as required). The reaction is initiated by the addition of the MgATP mix. After incubation for 40 minutes at room temperature, the reaction is stopped by the addition of 3% phosphoric acid solution. 10 μL of the reaction is then spotted onto a P30 filtermat and washed three times for 5 minutes in 75 mM phosphoric acid and once in methanol prior to drying and scintillation counting.
(§2) All compounds are prepared to 50× final assay concentration in 100% DMSO. Positive control wells contain all components of the reaction with 2% DMSO. Blank wells contain all components of the reaction, with a reference inhibitor replacing the compound of interest. Each kinase is assigned a standard assay concentration of ATP within 20 μM of its apparent KM. Compounds were screened at 1 μM in duplicate or tested at 10 concentrations at half log dilution starting from 10 μM in singlicate. Dose response curves were fitted with four parameter logistic curve to obtain IC50 values. The average coefficient of variation (CV) of the conducted assay is 4.4%.

[2] = molecular target: T2, Fms(h) (Homo sapiens, UniProt P07333); test: kinase profile, radiometric assay, Fms; assay type: biochemical
T2 construct: purchased Eurofins, Dundee, Scotland
T2 sequence (P07333 20-972): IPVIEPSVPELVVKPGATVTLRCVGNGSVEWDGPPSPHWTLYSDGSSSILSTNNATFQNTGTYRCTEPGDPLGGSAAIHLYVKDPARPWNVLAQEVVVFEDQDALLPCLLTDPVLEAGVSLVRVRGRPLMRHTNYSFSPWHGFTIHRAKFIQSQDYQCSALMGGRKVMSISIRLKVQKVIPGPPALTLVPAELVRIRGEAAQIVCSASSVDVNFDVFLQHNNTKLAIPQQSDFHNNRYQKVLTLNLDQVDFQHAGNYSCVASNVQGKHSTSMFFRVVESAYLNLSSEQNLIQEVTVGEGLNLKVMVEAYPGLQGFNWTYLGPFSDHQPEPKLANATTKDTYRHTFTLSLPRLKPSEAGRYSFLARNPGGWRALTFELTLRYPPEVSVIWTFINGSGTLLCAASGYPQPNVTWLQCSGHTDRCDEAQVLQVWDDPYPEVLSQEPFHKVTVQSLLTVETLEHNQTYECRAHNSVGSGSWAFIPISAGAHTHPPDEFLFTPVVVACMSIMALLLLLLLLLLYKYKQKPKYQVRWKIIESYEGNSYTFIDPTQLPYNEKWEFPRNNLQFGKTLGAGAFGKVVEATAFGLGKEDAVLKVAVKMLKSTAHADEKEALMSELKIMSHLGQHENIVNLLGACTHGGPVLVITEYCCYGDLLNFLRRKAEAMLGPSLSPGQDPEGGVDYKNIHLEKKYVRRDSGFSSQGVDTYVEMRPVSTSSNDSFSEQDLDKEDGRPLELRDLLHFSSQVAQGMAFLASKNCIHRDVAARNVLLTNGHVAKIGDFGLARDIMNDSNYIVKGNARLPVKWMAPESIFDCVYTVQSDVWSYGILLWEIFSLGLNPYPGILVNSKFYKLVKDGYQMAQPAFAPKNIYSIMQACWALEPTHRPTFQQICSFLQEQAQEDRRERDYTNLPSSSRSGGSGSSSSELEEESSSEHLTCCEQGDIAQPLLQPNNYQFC
Procedure: as §1, §2

[3] = molecular target: T3, JAK2(h) (Homo sapiens, UniProt O60674); test: kinase profile, radiometric assay, JAK2; assay type: biochemical
T3 construct: purchased Eurofins, Dundee, Scotland
T3 sequence (O60674 whole entry): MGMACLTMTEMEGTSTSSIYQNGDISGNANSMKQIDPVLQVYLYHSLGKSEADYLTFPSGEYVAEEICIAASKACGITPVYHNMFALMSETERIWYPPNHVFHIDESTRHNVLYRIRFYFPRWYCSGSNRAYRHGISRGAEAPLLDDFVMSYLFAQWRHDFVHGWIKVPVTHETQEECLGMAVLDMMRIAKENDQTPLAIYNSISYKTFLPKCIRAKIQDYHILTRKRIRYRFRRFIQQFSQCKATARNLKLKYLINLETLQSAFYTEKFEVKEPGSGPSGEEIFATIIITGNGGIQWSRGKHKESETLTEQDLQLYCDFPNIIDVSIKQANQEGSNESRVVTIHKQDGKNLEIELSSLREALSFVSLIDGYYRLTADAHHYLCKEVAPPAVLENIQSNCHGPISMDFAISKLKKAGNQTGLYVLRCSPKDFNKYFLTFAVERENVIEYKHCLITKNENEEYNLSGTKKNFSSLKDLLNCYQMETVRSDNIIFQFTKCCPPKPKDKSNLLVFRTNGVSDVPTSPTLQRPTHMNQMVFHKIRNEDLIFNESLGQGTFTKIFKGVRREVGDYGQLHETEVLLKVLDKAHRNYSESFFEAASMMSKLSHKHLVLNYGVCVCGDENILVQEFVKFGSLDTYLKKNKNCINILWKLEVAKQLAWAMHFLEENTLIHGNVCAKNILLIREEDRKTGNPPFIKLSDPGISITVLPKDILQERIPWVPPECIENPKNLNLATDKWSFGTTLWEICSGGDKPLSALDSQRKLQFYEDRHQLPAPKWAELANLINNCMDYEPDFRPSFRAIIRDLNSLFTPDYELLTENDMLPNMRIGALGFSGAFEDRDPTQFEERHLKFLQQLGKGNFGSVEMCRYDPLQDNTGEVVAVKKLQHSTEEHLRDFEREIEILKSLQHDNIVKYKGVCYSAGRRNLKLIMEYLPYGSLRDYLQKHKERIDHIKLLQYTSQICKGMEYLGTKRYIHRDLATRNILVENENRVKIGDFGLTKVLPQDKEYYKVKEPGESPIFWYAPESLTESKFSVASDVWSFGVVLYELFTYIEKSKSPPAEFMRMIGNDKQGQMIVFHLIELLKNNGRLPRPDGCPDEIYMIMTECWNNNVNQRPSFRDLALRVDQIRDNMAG
Procedure: as §1, §2

[4] = molecular target: T4, JNK2α2(h) (Homo sapiens, UniProt P45984); test: kinase profile, radiometric assay, JNK2α2; assay type: biochemical
T4 construct: purchased Eurofins, Dundee, Scotland
T4 sequence (P45984 whole entry): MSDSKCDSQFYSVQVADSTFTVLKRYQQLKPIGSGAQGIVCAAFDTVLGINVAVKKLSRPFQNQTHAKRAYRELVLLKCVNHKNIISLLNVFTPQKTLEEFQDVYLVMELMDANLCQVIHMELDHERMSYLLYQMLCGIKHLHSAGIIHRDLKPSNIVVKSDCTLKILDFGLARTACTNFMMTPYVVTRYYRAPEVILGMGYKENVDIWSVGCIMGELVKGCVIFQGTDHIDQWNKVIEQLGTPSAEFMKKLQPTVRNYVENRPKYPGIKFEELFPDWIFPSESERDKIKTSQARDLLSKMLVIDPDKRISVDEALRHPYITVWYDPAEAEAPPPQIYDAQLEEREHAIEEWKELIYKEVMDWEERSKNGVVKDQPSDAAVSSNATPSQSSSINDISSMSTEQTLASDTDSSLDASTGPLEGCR
Procedure: as §1, §2

[5] = molecular target: T5, MEK1(h) (Homo sapiens, UniProt Q02750); test: kinase profile, radiometric assay, MEK1; assay type: biochemical
T5 construct: purchased Eurofins, Dundee, Scotland
T5 sequence (Q02750 whole entry): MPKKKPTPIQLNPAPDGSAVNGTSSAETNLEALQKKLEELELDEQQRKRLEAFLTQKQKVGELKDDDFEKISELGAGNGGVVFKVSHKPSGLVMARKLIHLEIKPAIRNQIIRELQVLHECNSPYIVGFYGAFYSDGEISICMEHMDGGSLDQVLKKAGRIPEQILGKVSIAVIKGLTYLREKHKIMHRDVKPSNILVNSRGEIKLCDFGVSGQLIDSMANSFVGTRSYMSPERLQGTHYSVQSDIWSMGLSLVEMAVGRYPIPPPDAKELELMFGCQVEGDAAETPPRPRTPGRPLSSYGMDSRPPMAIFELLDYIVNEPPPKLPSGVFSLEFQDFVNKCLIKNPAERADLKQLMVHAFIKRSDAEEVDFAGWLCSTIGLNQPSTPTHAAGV
Procedure: as §1, §2

[6] = molecular target: T6, MEKK2(h) (Homo sapiens, UniProt Q9Y2U5); test: kinase profile, radiometric assay, MEKK2; assay type: biochemical
T6 construct: purchased Eurofins, Dundee, Scotland
T6 sequence (Q9Y2U5 1-619): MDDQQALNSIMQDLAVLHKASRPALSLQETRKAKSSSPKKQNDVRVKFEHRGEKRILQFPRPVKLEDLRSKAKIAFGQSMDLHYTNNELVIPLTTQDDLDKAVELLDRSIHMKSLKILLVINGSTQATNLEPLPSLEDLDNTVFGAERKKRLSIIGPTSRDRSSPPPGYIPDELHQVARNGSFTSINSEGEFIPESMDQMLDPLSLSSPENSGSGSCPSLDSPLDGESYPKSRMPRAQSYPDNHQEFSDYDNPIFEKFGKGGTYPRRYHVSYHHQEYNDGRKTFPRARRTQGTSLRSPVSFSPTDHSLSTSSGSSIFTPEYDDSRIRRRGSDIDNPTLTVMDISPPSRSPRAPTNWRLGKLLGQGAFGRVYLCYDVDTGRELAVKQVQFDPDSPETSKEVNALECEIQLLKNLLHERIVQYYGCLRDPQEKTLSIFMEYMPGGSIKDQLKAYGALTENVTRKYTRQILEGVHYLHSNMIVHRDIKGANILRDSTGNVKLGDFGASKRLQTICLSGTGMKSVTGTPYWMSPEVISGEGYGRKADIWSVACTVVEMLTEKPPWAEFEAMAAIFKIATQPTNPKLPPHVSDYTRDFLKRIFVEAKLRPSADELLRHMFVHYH
Procedure: as §1, §2

[7] = molecular target: T7, CLK3(h) (Homo sapiens, UniProt P49761); test: radiometric protein kinase assay, CLK3; assay type: biochemical; details: enzyme inhibition, radiometric, ATP 90 μM; read-out: IC50 (nM) CLK3
T7 construct: purchased Eurofins, Dundee, Scotland
T7 sequence (P49761 whole entry): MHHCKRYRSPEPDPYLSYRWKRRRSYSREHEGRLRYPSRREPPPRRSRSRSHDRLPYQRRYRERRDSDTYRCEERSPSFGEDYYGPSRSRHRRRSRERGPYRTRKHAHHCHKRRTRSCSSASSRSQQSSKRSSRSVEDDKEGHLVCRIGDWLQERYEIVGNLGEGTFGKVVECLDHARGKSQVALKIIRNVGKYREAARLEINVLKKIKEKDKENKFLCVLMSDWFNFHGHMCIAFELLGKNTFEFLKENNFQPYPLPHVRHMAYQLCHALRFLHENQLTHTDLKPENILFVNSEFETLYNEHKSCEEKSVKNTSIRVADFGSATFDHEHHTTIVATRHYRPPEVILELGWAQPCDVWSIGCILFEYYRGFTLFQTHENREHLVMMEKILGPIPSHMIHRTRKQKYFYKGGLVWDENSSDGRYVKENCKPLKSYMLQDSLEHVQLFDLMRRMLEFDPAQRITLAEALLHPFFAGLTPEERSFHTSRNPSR
Procedure: as §1, §2

[8] = molecular target: T8, CDK1/cyclinB(h) (Homo sapiens, UniProt P06493); test: radiometric protein kinase assay, CDK1; assay type: biochemical; details: enzyme inhibition, ATP 45 μM
T8 construct: purchased Eurofins, Dundee, Scotland
Procedure: as §1, §2

[9] = molecular target: T9, CDK4/cyclinD3(h) (Homo sapiens, UniProt P11802); test: radiometric protein kinase assay, CDK4; assay type: biochemical; details: enzyme inhibition, ATP 20 μM
T9 construct: purchased Eurofins, Dundee, Scotland
Procedure: as §1, §2

[10] = molecular target: T10, CDK6/cyclinD3(h) (Homo sapiens, UniProt Q00534); test: radiometric protein kinase assay, CDK6; assay type: biochemical; details: enzyme inhibition, ATP 20 μM
T10 construct: purchased Eurofins, Dundee, Scotland
Procedure: as §1, §2

[11] = system: MDM2 alternate splicing in Rh-18 cells; test: Rh-18 MDM2 RT-PCR gel-based assay (orthogonal secondary assay); assay type: cell-based; details: 10 μM, 8 h
Procedure: These hits were then subjected to a confirmatory assay in the Rh-18 MDM2 RT-PCR gel-based assay at a concentration of 10 μM.
Referring to FIG. 6, cells were exposed to 0.5% DMSO, 0.2 μM sudemycin D6 or […] CGP-74514A for 8 h. Total RNA was extracted by RNeasy Mini Kit (Qiagen). High capacity RNA-to-cDNA kit (Life technologies) was used to convert the RNA to cDNA.
Referring to FIG. 7, cells were exposed to 0.5% DMSO (lane 1), 1 μM sudemycin D6 (lane 2), 10 μM Compound 14 (lane 3), and 10 μM Compound 15 (lane 4) for 8 h. The total RNA was extracted by RNeasy Mini Kit (Qiagen). High capacity RNA-to-cDNA kit (Life technologies) was used to convert the RNA to cDNA. […] Ubiquitin transcripts (165 bp) in the same cells were used as a control (Fan et al. (2011) ACS Chem. Biol. 6: 582-9).

[12] = system: 22 oncogenic kinases; test: kinase profiling against 22 oncogenic kinases; assay type: biochemical, human; details: 1 μM in duplicate
Procedure: as §1, §2

T1 sequence (P04626 23-1255): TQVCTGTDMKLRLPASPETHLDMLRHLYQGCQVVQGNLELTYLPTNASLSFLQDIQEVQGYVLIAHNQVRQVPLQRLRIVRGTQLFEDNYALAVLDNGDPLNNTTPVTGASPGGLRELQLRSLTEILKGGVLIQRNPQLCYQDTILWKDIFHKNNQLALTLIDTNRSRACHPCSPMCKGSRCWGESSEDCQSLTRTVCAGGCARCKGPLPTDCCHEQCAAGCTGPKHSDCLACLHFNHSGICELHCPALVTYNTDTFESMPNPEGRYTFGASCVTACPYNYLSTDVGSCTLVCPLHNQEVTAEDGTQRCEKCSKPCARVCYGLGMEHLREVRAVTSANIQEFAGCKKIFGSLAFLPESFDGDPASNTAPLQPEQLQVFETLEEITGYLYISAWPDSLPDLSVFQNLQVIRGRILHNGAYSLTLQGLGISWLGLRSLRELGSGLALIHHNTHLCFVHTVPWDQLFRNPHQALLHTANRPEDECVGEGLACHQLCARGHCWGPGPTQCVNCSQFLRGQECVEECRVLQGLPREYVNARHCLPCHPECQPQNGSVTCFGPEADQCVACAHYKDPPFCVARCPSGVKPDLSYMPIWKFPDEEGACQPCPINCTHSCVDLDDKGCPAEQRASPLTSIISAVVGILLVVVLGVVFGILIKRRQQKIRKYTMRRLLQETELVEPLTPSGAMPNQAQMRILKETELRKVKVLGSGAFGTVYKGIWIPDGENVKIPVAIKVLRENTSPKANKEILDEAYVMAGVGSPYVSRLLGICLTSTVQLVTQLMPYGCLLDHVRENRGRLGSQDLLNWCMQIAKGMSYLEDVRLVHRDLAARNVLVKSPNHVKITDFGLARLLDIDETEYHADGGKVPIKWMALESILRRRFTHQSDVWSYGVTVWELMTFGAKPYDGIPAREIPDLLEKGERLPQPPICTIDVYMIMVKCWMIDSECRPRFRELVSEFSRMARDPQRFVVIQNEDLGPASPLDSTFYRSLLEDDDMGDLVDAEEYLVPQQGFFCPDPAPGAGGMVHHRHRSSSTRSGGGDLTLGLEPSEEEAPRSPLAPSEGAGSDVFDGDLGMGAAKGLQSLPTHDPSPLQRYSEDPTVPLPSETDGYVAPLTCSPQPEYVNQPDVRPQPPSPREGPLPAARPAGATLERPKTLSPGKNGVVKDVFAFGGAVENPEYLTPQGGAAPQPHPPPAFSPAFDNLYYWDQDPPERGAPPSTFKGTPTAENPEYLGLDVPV

| IC50 [7] | IC50 [8] | IC50 [9] | IC50 [10] | Compound | inhibition at 1 µM [1] | inhibition at 1 µM [2] | inhibition at 1 µM [3] | inhibition at 1 µM [4] | inhibition at 1 µM [5] | inhibition at 1 µM [6] | activity in the Rh-18 MDM2 RT-PCR gel-based confirmatory assay [11] | inhibition against the entire 22 diverse kinase panel [12] |
| --- | --- | --- | --- | --- | --- | --- | --- | --- | --- | --- | --- | --- |
|  |  |  |  | CC(C)n1cnc2c(Nc3cccc(Cl)c3)nc(N[C@@H]3CCCC[C@@H]3N)nc21 [Compound 9, N^2-((1R,2S)-2-Aminocyclohexyl)-N^6-(3-Chlorophenyl)-9-Isopropyl-9H-Purine-2,6-Diamine] | 0% | -16% | 2% | 4% | 8% | 18% |  |  |
| > 1000 nM | 973 nM | > 1000 nM | > 1000 nM | CC(C)n1cnc2c(Nc3cc(N)cc(Cl)c3)nc(NC3CCCCC3N)nc21 (racemic) [Compound 14, Racemic N^6-Cis-(3-Amino-5-Chlorophenyl)-N^2-(2-Aminocyclohexyl)-9-Isopropyl-9H-Purine-2,6-Diamine] | 3% | 9% | 8% | -6% | 6% | 48% | confirmation |  |
|  |  |  |  | CC(C)n1cnc2c(Nc3cccc(Cl)c3)nc(N[C@H]3CCCC[C@@H]3N)nc21 [Compound 8, N^2-((1S,2S)-2-Aminocyclohexyl)-V-(3-Chlorophenyl)-9-Isopropyl-9H-Purine-2,6-Diamine] | 2% | -1% | -6% | 1% | 10% | 47% |  | < 50% |
